According to ChEMBL document CHEMBL1201862, “PubChem BioAssay data set” (2004):
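How tested: cells in 96-well plates exposed to compound for 48 hours at five concentrations. At the GI50, growth is halved.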 Activity calls are given as the source filed them. Rule as the data show it: active = GI50 up to about 1.1 µM and inactive = higher.

Columns and labels:
Experiment in all cases: NCI-60 cell line screen, 48 h
CCRF-CEM = test system: CCRF-CEM
MDA-MB-435 = test system: MDA-MB-435
SK-OV-3 = test system: SK-OV-3
M14 = test system: M14
UACC-257 = test system: UACC-257
Malme-3M = test system: Malme-3M
HOP-62 = test system: HOP-62
SK-MEL-28 = test system: SK-MEL-28
T47D = test system: T47D
MDA-MB-231 = test system: MDA-MB-231
MDA-N = test system: MDA-N
EKVX = test system: EKVX
HCT-15 = test system: HCT-15
NCI-H226 = test system: NCI-H226
SN12C = test system: SN12C
OVCAR-5 = test system: OVCAR-5
IGROV-1 = test system: IGROV-1
RXF 393 = test system: RXF 393

SMILES	GI50 (CCRF-CEM)	GI50 (MDA-MB-435)	GI50 (SK-OV-3)	GI50 (M14)	GI50 (UACC-257)	GI50 (Malme-3M)	GI50 (HOP-62)	GI50 (SK-MEL-28)	GI50 (T47D)	GI50 (MDA-MB-231)	GI50 (MDA-N)	GI50 (EKVX)	GI50 (HCT-15) [µM]	GI50 (NCI-H226)	GI50 (SN12C)	GI50 (OVCAR-5)	GI50 (IGROV-1)	GI50 (RXF 393)
O=C1CNNC(CSc2nc3ccc(I)cc3c(=O)n2Cc2ccccc2)=N1	15.4 µM (inactive)	32.6 µM (inactive)	33.3 µM (inactive)	36.1 µM (inactive)	26.4 µM (inactive)	23.9 µM (inactive)	32.3 µM (inactive)	20.9 µM (inactive)	15.5 µM (inactive)	14.5 µM (inactive)	27.5 µM (inactive)	23.6 µM (inactive)	32	18.1 µM (inactive)	17.1 µM (inactive)	41.2 µM (inactive)	18 µM (inactive)	–
c1ccc2c(c1)CCc1c-2n(CCN2CCCCC2)c2ccccc12	15.6 µM (inactive)	25.4 µM (inactive)	23.7 µM (inactive)	13.5 µM (inactive)	17.2 µM (inactive)	24.7 µM (inactive)	15.8 µM (inactive)	19.6 µM (inactive)	15.5 µM (inactive)	13.2 µM (inactive)	–	20.4 µM (inactive)	10.6	10.9 µM (inactive)	17.3 µM (inactive)	15.5 µM (inactive)	11.4 µM (inactive)	–
C=C1C(=O)OC2CC3(C)CCCC(C)C3=CC12 (centres undefined)	1.21 µM (inactive)	2.94 µM (inactive)	20.7 µM (inactive)	3.56 µM (inactive)	5.38 µM (inactive)	3.9 µM (inactive)	–	2.65 µM (inactive)	2.88 µM (inactive)	12.1 µM (inactive)	3.18 µM (inactive)	5.3 µM (inactive)	2.1	13.2 µM (inactive)	3.3 µM (inactive)	11.2 µM (inactive)	10.1 µM (inactive)	–
CCOC(=O)CCC(NC(=O)c1ccc(CNc2nc3cc(N)cc(N)c3nc2-c2ccccc2)cc1)C(=O)OCC (centres undefined)	–	43.1 µM (inactive)	> 100 µM (inactive)	28.4 µM (inactive)	19 µM (inactive)	18.3 µM (inactive)	> 100 µM (inactive)	28.2 µM (inactive)	20.7 µM (inactive)	22.3 µM (inactive)	–	> 100 µM (inactive)	> 69.5	> 100 µM (inactive)	> 61.5 µM (inactive)	> 100 µM (inactive)	> 87.1 µM (inactive)	> 58.9 µM (inactive)
CCOC(=O)c1ccc(NC(=O)O/N=C(/Cl)CCl)cc1	21.5 µM (inactive)	–	75.3 µM (inactive)	–	44.6 µM (inactive)	81.1 µM (inactive)	> 100 µM (inactive)	17.6 µM (inactive)	34.1 µM (inactive)	> 100 µM (inactive)	37.8 µM (inactive)	23.5 µM (inactive)	5.57	–	84.9 µM (inactive)	86.7 µM (inactive)	> 100 µM (inactive)	–
COc1ccc(Oc2nc3ccc(C(F)(F)F)cc3nc2-c2ccccc2)cc1	98.9 µM (inactive)	> 100 µM (inactive)	> 100 µM (inactive)	–	> 100 µM (inactive)	> 100 µM (inactive)	> 100 µM (inactive)	> 100 µM (inactive)	–	> 100 µM (inactive)	–	> 100 µM (inactive)	> 100	> 100 µM (inactive)	> 100 µM (inactive)	> 100 µM (inactive)	> 100 µM (inactive)	50.5 µM (inactive)
N#C/C(=C/NC(=S)Nc1ccc(S(N)(=O)=O)cc1)C(N)=O	–	> 100 µM (inactive)	> 100 µM (inactive)	> 100 µM (inactive)	> 100 µM (inactive)	> 100 µM (inactive)	> 100 µM (inactive)	> 100 µM (inactive)	–	–	> 100 µM (inactive)	> 100 µM (inactive)	> 100	–	> 100 µM (inactive)	> 100 µM (inactive)	> 100 µM (inactive)	> 100 µM (inactive)
COC(=O)C(Cc1ccccc1)NP(=O)(O)OCC1OC(n2ccc(N)nc2=O)C(O)C1O (centres undefined)	50.9 µM (inactive)	> 100 µM (inactive)	> 100 µM (inactive)	> 100 µM (inactive)	> 100 µM (inactive)	> 100 µM (inactive)	> 100 µM (inactive)	> 100 µM (inactive)	> 100 µM (inactive)	> 100 µM (inactive)	> 100 µM (inactive)	> 100 µM (inactive)	> 100	> 100 µM (inactive)	> 100 µM (inactive)	> 100 µM (inactive)	> 100 µM (inactive)	–
COc1cc([C@@H]2c3cc4c(cc3[C@@H](Nc3ccc(Cl)cc3C(=O)c3ccccc3)[C@H]3COC(=O)[C@H]23)OCO4)cc(OC)c1OC	0.37 µM (active)	0.242 µM (active)	0.641 µM (active)	0.414 µM (active)	0.998 µM (active)	0.396 µM (active)	0.64 µM (active)	0.372 µM (active)	> 100 µM (inactive)	0.586 µM (active)	0.307 µM (active)	> 100 µM (inactive)	0.308	–	0.518 µM (active)	0.598 µM (active)	0.417 µM (active)	–
O=c1[nH]c(=O)n(COCCO)c2ccc(Br)cc12	> 100 µM (inactive)	> 100 µM (inactive)	> 100 µM (inactive)	> 100 µM (inactive)	> 100 µM (inactive)	–	–	> 100 µM (inactive)	–	> 100 µM (inactive)	> 100 µM (inactive)	92.3 µM (inactive)	45.9	25.2 µM (inactive)	> 100 µM (inactive)	> 100 µM (inactive)	77.1 µM (inactive)	> 100 µM (inactive)
Cc1c(C(=O)C(=O)c2ccccc2)c(C)c(C(=O)C(=O)c2ccccc2)c(C)c1C(=O)C(=O)c1ccccc1	> 100 µM (inactive)	> 100 µM (inactive)	> 100 µM (inactive)	> 100 µM (inactive)	> 100 µM (inactive)	–	> 100 µM (inactive)	> 100 µM (inactive)	> 100 µM (inactive)	> 100 µM (inactive)	> 100 µM (inactive)	> 100 µM (inactive)	> 100	–	> 100 µM (inactive)	> 100 µM (inactive)	> 100 µM (inactive)	–
CC(=O)N1c2ccccc2C23CCN4CC5=CCOC(O)C(C5CC42)C13 (centres undefined)	> 100 µM (inactive)	> 100 µM (inactive)	> 100 µM (inactive)	> 100 µM (inactive)	> 100 µM (inactive)	> 100 µM (inactive)	–	> 100 µM (inactive)	> 100 µM (inactive)	> 100 µM (inactive)	> 100 µM (inactive)	> 100 µM (inactive)	> 100	> 100 µM (inactive)	> 100 µM (inactive)	> 100 µM (inactive)	> 100 µM (inactive)	–
O=C(Cn1c(-c2ccccc2)cc2ccccc21)N1CCCC1	–	–	> 100 µM (inactive)	> 100 µM (inactive)	> 100 µM (inactive)	> 100 µM (inactive)	> 100 µM (inactive)	–	> 100 µM (inactive)	> 100 µM (inactive)	> 100 µM (inactive)	> 100 µM (inactive)	> 100	> 100 µM (inactive)	> 100 µM (inactive)	> 100 µM (inactive)	> 100 µM (inactive)	–
COC(=O)c1c(C)cc(OC)c(C/C=C(\C)CCCc2coc(C=C(C)C)c2)c1OC	41.5 µM (inactive)	> 100 µM (inactive)	–	> 100 µM (inactive)	> 100 µM (inactive)	–	> 100 µM (inactive)	> 100 µM (inactive)	43 µM (inactive)	> 100 µM (inactive)	> 100 µM (inactive)	> 100 µM (inactive)	> 100	–	> 100 µM (inactive)	> 100 µM (inactive)	> 100 µM (inactive)	–
Cc1nc2ccc(S(=O)(=O)Nc3ccccc3Cl)cc2c(=O)n1NC(=O)CNc1ccccc1Cl	> 100 µM (inactive)	> 100 µM (inactive)	> 100 µM (inactive)	> 100 µM (inactive)	> 100 µM (inactive)	> 100 µM (inactive)	> 100 µM (inactive)	> 100 µM (inactive)	–	> 100 µM (inactive)	> 100 µM (inactive)	> 100 µM (inactive)	> 100	> 100 µM (inactive)	> 100 µM (inactive)	> 100 µM (inactive)	> 100 µM (inactive)	–
CCOC(=O)C#Cc1ccccc1	2.94 µM (inactive)	7.18 µM (inactive)	26.6 µM (inactive)	5.14 µM (inactive)	33.9 µM (inactive)	13.1 µM (inactive)	17.3 µM (inactive)	16.8 µM (inactive)	19.4 µM (inactive)	16.4 µM (inactive)	4.09 µM (inactive)	2.28 µM (inactive)	8.09	20 µM (inactive)	5.55 µM (inactive)	5.08 µM (inactive)	–	–
O=C1/C(=C/c2ccc(Br)s2)NC(=S)N1c1ccccc1	> 100 µM (inactive)	86.3 µM (inactive)	45.6 µM (inactive)	–	65.6 µM (inactive)	68.1 µM (inactive)	39.1 µM (inactive)	> 100 µM (inactive)	–	34.3 µM (inactive)	> 100 µM (inactive)	> 100 µM (inactive)	80.5	> 100 µM (inactive)	74.3 µM (inactive)	> 100 µM (inactive)	69.3 µM (inactive)	30.1 µM (inactive)
O=c1n(-c2ccccc2)c(=O)n2n1C1Cc3ccccc3C12 (centres undefined)	> 100 µM (inactive)	> 100 µM (inactive)	> 100 µM (inactive)	> 100 µM (inactive)	> 100 µM (inactive)	–	> 100 µM (inactive)	> 100 µM (inactive)	> 100 µM (inactive)	> 100 µM (inactive)	> 100 µM (inactive)	> 100 µM (inactive)	> 100	> 100 µM (inactive)	> 100 µM (inactive)	> 100 µM (inactive)	> 100 µM (inactive)	–
